For 93 compounds, AC40 results are on record in PubChem BioAssay AID652053 (Broad Institute, 2013).

For this assay, the system named is Huh7 psiCHECK-miR122 Renilla luciferase reporter, 48 h. The experiment in a line: suppression of miR-122 activity, Renilla luciferase sensor – cell-based, Huh7 psiCHECK-miR122, cherry-pick, dose response (AID 652053).

For the compound `O=C(c1ccc(F)cc1)N1C[C@H]2[C@@H](c3ccccc31)[C@@H](CO)N2Cc1ccc2c(c1)OCO2`, the AC40 was 17.3 µM.
Under `C[C@H]1CN([C@@H](C)CO)C(=O)Cc2cc(N(C)C)ccc2O[C@@H]1CN(C)Cc1ccc(C(=O)Nc2ccccc2N)cc1` stands 25.7 µM; under `COc1ccccc1NS(=O)(=O)c1cc(NC(=O)c2cccc(S(=O)(=O)N(C)C)c2)ccc1N1CCOCC1`, 0.776 µM.
Under `O=S(=O)(Nc1ccc(C(O)(C(F)(F)F)C(F)(F)F)cc1)c1cccc2cccnc12` stands 9.64 µM.
For `COc1cccc(N2CCN(C(=O)c3ccc(CS(=O)c4ccccc4Cl)o3)CC2)c1` (stereo not drawn), the AC40 was 15.8 µM.
Next, `COc1cccc(C2(c3cccc(OC)c3)CC2C(=O)Nc2ccc(F)cc2)c1` (stereo not drawn): 2.68 µM; `CCOc1ccc(NS(=O)(=O)c2ccc(NC(=S)NC(=O)CC(C)C)cc2)cc1`: 1.68 µM; `Cc1ccc(NS(=O)(=O)c2cc(C(=O)NCc3ccncc3)ccc2C)cc1`: 2.82 µM.
Take `Cc1ccccc1OCC(=O)NNC(=O)Nc1ccc(Cl)cc1`: the AC40 is 17.4 µM.
Next, `Cc1cc(C)c(C)c(S(=O)(=O)Nc2ccc(C(=O)N3CCCC3)cc2)c1C`: 2 µM; `CCOC(=O)C1CCCCN1C(=O)c1cc2ccc(OC)cc2c2cc(OC)c(OC)cc12` (stereo not drawn): 4.65 µM; `CC(C)(C)NS(=O)(=O)c1ccc(NC(=S)NC(=O)C2CC2)cc1`: 1.86 µM.
Next, `Cc1cc(C)cc(NS(=O)(=O)c2cc(Br)cnc2N)c1`: 0.656 µM.
For the compound `O=C(C(=O)N(Cc1ccccc1)Cc1ccccc1)c1c(-c2ccccc2)[nH]c2ccccc12`, the AC40 was 1 µM.
Take `COc1ccc(OC)c(S(=O)(=O)N2CCC3(CC2)OCCN3S(=O)(=O)c2cccs2)c1`: the AC40 is 15.7 µM.
Under `COc1ccc(N2CCN(C(=O)c3csc4ccccc34)CC2)cc1` stands 15.9 µM; under `C[C@H](CO)N1C[C@H](C)[C@@H](CN(C)C(=O)Nc2ccc(F)cc2)Oc2c(NS(=O)(=O)c3ccccc3)cccc2C1=O`, 20.4 µM.
Next, `Cc1ccc(C)c(S(=O)(=O)Nc2ccc3cn[nH]c3c2)c1`: 3.58 µM.
As for `O=S(=O)(NCc1ccco1)c1ccc2ccccc2c1`, the AC40 was 2.62 µM.
As to `COc1ccc(S(=O)(=O)N(C)C[C@H]2Oc3ccc(NC(=O)Cc4ccccc4)cc3C(=O)N([C@H](C)CO)C[C@H]2C)cc1`, the AC40 was 2.75 µM.
Next, `O=C(CN1c2ccccc2Sc2ccccc21)NNC(=O)Nc1cccc(Cl)c1`: 17.1 µM.
As to `O=C(NCc1ccncc1)c1cccc(S(=O)(=O)Nc2ccc(F)cc2)c1`, the AC40 was 3.23 µM.
Under `O=S(=O)(NCC1CCCO1)c1cc(Br)c(Br)s1` (stereo not drawn) stands 4 µM.
With `O=C1c2ccccc2C2=Nc3ccccc3SC(c3cccc(F)c3)C12` (stereo not drawn), the AC40 was 7.63 µM.
Next, `Cc1ccc(-c2nnc(Nc3ccc4c(c3)OCO4)c3ccccc23)cc1S(N)(=O)=O`: 5.9 µM; `COC(=O)c1[nH]c2ccccc2c1NC(=O)CN1CCCc2ccccc21`: 21.5 µM; `COc1ccc(OC)c(N(CC(=O)N2CCC(C)CC2)S(=O)(=O)c2ccccc2)c1`: 4.36 µM.
With `NC(=O)Cn1cc(/C=N\NS(=O)(=O)c2ccc(Cl)cc2)c2ccccc21`, the AC40 was 3.75 µM.
Under `COc1ccc(C)cc1S(=O)(=O)Nc1ccc(F)cc1` stands 1.04 µM; under `N#Cc1c(NC(=O)c2ccccc2)sc2c1CCC2`, 29 µM; under `CCCCNS(=O)(=O)c1ccc2nc(SCC(N)=O)[nH]c2c1`, 6.07 µM.
Next, `CCc1c(C(=O)NC2CCCCC2)[nH]c(C)c1C(C)=O`: 4.84 µM; `O=C(Nc1ccc(F)cc1)N1C[C@H]2[C@@H](c3ccccc31)[C@@H](CO)N2C(=O)c1ccc(F)cc1`: 10.9 µM; `COc1ccc(S(=O)(=O)Nc2ccc(S(=O)(=O)Nc3ccc(F)cc3)cc2)cc1C`: 14.5 µM.
With `CCOc1cc(C)c(Cl)cc1S(=O)(=O)NC1CC(C)(C)NC(C)(C)C1`, the AC40 was 6.39 µM.
Consider `CC(C)(C)c1ccc(S(=O)(=O)Nc2ccc(C(O)(C(F)(F)F)C(F)(F)F)cc2)cc1`, for which the AC40 was 5.39 µM.
On to `CCc1c(C(=O)NCc2ccccc2Cl)[nH]c(C)c1C(C)=O`, for which the AC40 was 1.38 µM.
Under `O=S(=O)(/N=C(/Nc1ccc(Cl)c(S(=O)(=O)N2CCOCC2)c1)c1ccc(F)cc1)c1ccccc1` stands 0.864 µM; under `Cc1ccc(C(=O)Nc2ccc(C)c(S(=O)(=O)Nc3ccccc3Cl)c2)s1`, 3.03 µM; under `COc1ccc(N(CC(=O)Nc2cc(C)on2)S(=O)(=O)c2cc(C)ccc2C)cc1`, 5.67 µM.
For `CCN(CC)C(=O)CN(c1cc2c(cc1OC)oc1ccccc12)S(=O)(=O)c1ccccc1`, the AC40 is 1.69 µM.
Regarding `C=CCNC(=O)c1ccccc1NC(=O)c1ccc(Cl)c(S(=O)(=O)Nc2cc(C)ccc2C)c1`, the AC40 was 1.38 µM.
Under `Cc1cc(C)cc(NS(=O)(=O)c2ccc(NC(=S)NC(=O)c3cccs3)cc2)c1` stands under 0.26 µM; under `Nc1ncc(Br)cc1S(=O)(=O)NC1CCCCC1`, 2.19 µM.
Under `O=S1(=O)CCC(NS(=O)(=O)c2ccc3ccccc3c2)C1` (stereo not drawn) stands 13.4 µM; under `Cc1ccc(C(C)C)cc1S(=O)(=O)NC1CC(C)(C)NC(C)(C)C1`, 8.18 µM; under `COC(=O)C1CC23C=CCN4CCC5(c6ccccc6NC15C2C)C43` (stereo not drawn), 20.1 µM.
Under `Cc1cc(C)c(C)c(S(=O)(=O)NC2CCN(Cc3ccccc3)CC2)c1C` stands 9.53 µM.
On to `O=C(Nc1ccc(S(=O)(=O)NC2CCCCC2)cc1)c1ccc(Br)o1`, for which the AC40 was 1.66 µM.
Under `Cc1cc(S(=O)(=O)Nc2cccc(O)c2)c(C)s1` stands 31 µM; under `COc1ccccc1NS(=O)(=O)c1cc(NC(=O)CCC2CCCC2)ccc1N1CCOCC1`, 1.45 µM.
As to `Cc1ccc(-c2nn(Cc3ccccc3)cc2C(=O)N2CCN(c3ccccn3)CC2)cc1`, the AC40 is 2.44 µM.
Under `COc1cc(S(=O)(=O)Nc2ccccc2N2CCCCC2)ccc1NC(C)=O` stands 6.94 µM; under `Cc1ccc2ccccc2c1C(O)c1ncc(-c2ccccc2F)[nH]1` (stereo not drawn), 4.22 µM.
As for `CC(=O)N1c2c(cc(Br)cc2S(=O)(=O)NCC2COc3ccccc3O2)CC1C` (stereo not drawn), the AC40 was 4.53 µM.
In the case of `C=CCN(CC=C)S(=O)(=O)c1ccc2nc(NC(=O)C(C)C)sc2c1`, the AC40 is 8.29 µM.
In the case of `CCC1=Nc2cc(C(=O)NCc3ccco3)ccc2Sc2ccc(C)cc21`, the AC40 was 4.49 µM.
Next, `Cc1ccc(S(=O)(=O)Nc2ccccc2-c2ccccc2)cc1`: 12.4 µM; `COc1cc(C)c(Cl)cc1S(=O)(=O)NCc1ccco1`: 1.18 µM.
Consider `O=S(=O)(Nc1ccccc1)c1ccc(-c2cnc(C3CC3)o2)cc1`, for which the AC40 is 8.92 µM.
Take `COc1ccc(NC(=O)Cc2cccc(F)c2)cc1S(=O)(=O)Nc1ccccc1Cl`: the AC40 is 4.83 µM.
For the compound `Cc1cc(S(=O)(=O)NC2CCCCC2)c(C)s1`, the AC40 was 1.44 µM.
For `COc1ccc(NS(=O)(=O)c2cc(NC(=O)c3ccc(=O)[nH]c3)ccc2N2CCCC2)cc1`, the AC40 is 0.424 µM.
Next, `CCOC(=O)c1c(C)[nH]c(C)c1S(=O)(=O)NCCCc1ccco1`: 5.96 µM; `CCOc1ccc(C)cc1S(=O)(=O)NC1CCCCC1`: 0.575 µM; `CC(c1ccco1)N(C(=O)CSc1ccc(Br)cc1)c1ccccn1` (stereo not drawn): 14.4 µM.
As to `CCOc1ccc(Br)cc1S(=O)(=O)Nc1cccc(S(=O)(=O)N(CC)CC)c1`, the AC40 is 7.75 µM.
Regarding `COc1ccc(NS(=O)(=O)c2ccc(OC)c3ccccc23)cn1`, the AC40 was 2.67 µM.
As for `O=C(c1cccc(F)c1)N1C[C@H]2[C@@H](c3ccccc31)[C@@H](CO)N2C(=O)c1ccc(F)cc1`, the AC40 is 1.08 µM.
In the case of `COc1cc(S(=O)(=O)NC2CCCC2)c(OC)cc1C`, the AC40 is 3.17 µM.
On to `COc1ccc(S(=O)(=O)Nc2ccc3c(c2)C(=O)N([C@@H](C)CO)C[C@H](C)[C@H](CN(C)C(=O)Nc2ccccc2)OCCCC[C@@H](C)O3)cc1`, for which the AC40 is 29.6 µM.
For the compound `Cn1cc(CC(=O)Nc2cccc(C#N)c2)c2ccccc21`, the AC40 is 3.57 µM.
For `O=S(=O)(NCCC1=CCCCC1)c1ccccc1Br`, the AC40 was 2.03 µM.
Turning to `CCNS(=O)(=O)c1ccc(NS(=O)(=O)c2cc(C)ccc2C)cc1`, the AC40 is 1.86 µM.
Turning to `Cc1ccnc(NCc2cc(C)ccc2O)c1`, the AC40 is 29.8 µM.
With `COc1ccc(C)cc1NS(=O)(=O)c1ccc2c(c1)CCN2C(C)=O`, the AC40 was 8.33 µM.
Turning to `C[C@H](CO)N1C[C@H](C)[C@@H](CN(C)Cc2ccc(C(F)(F)F)cc2)Oc2c(NC(=O)C3CC3)cccc2C1=O`, the AC40 was 0.387 µM.
Next, `Cc1cccc(NS(=O)(=O)c2cc3c(cc2C)NC(=O)CO3)c1`: 2.36 µM; `O=C1c2ccccc2C2=Nc3ccccc3SC(c3ccccc3F)C12` (stereo not drawn): 21 µM.
Next, `Cc1cc(S(=O)(=O)NCC(c2ccccc2)c2ccccc2)ccc1-n1cnnn1`: 2.23 µM; `CCCC(C)NS(=O)(=O)c1ccc(OC)c(C)c1` (stereo not drawn): 10 µM; `C[C@H](CO)N1C[C@H](C)[C@@H](CN(C)Cc2ccc3c(c2)OCO3)Oc2c(NC(=O)Nc3ccccc3)cccc2C1=O`: 8.95 µM.
For `CCOc1ccccc1N(CC(=O)N1CCCCCC1)S(=O)(=O)c1ccc(C)cc1`, the AC40 is 1.23 µM.
Next, `Cc1ccc(C)c(S(=O)(=O)Nc2cc3c4c(c2)CC(=O)N4CCC3)c1`: 1.88 µM; `COc1ccc(S(=O)(=O)NCc2ccccc2)cc1`: 2.53 µM; `Cc1ccc(NS(=O)(=O)c2cc(C(=O)Nc3cccc([N+](=O)[O-])c3)ccc2C)cc1`: 2.5 µM.
For `CCCCNS(=O)(=O)c1ccc2nc(-c3cccnc3)cc(C(=O)NC(C)CC)c2c1` (stereo not drawn), the AC40 is 0.387 µM.
Next, `Cc1ccc(Cn2c(NS(=O)(=O)c3ccccc3)nc3ccccc32)cc1`: 2 µM; `COc1ccc(NS(=O)(=O)c2cc(N)ccc2N2CCOCC2)cc1`: 6.74 µM.
Next, `Cc1ccc(NS(=O)(=O)c2csc(C(N)=O)c2)cc1C`: 3.14 µM; `COc1ccc(NC(=O)c2cccc(S(=O)(=O)Nc3ccc(Br)cc3)c2)cn1`: 2.11 µM; `CCn1cc(S(=O)(=O)CC(=O)Nc2ccc(C)cc2)c2ccccc21`: 15.1 µM.
On to `CCc1ccc(-c2cc(C)no2)cc1S(=O)(=O)NCc1ccccc1OC`, for which the AC40 is 3.11 µM.
